Like-named read-outs stand apart in the source and are kept apart here.
Experiments:
[1] = tested on: Aspergillus niger ATCC 9642; Aureobasidium pullulans ATCC 15233; Chaetomium globosum ATCC 6205; Penicillium funiculosum ATCC 11797; Trichoderma virens ATCC …; assay: Fungal resistance test, ASTM G21, on mineral salts agar; design: Zone of Inhibition: key to the marks not given beside the values; settings: PVC samples inoculated with mixed fungi, 28° C., 4 weeks
[2] = Protocol: (§1) Zinc dehydroacetate and zinc pyrithione were mixed with filled and clear commercial flexible polyvinyl chloride (PVC) compounds. The mixtures were extruded using an intermeshing modular co-rotating twin screw extruder to form flexible PVC compounds. […] Following extrusion, the flexible PVC compounds were cooled. Once cooling was complete, the flexible PVC compounds were pressed at 185° C. to form plastic sheets.
as §1, with “Zinc” for “Zinc dehydroacetate and zinc”, “pyrithione was” for “pyrithione were”
The weathering tester was set to a cycle of eight hours of ultraviolet A light (long wave) exposure and a four hour water condensation cycle in accordance with ASTM […]. After 1,000 hours of exposure, the plastic sheets were examined for color development.

zinc pyrithione
Fungal Growth Reading [1]: 0 | Zone of Inhibition [1]: ++ | Color Rating of Clear FPVC ([2]; clear flexible PVC sheet, 0 hours QUV exposure): 0 | Color Rating of Clear FPVC ([2]; clear flexible PVC sheet, 1,000 hours QUV exposure (8 h UVA / 4 h condensation cycle)): 3 | Color Rating of Filled FPVC ([2]; filled flexible PVC sheet, 0 hours QUV exposure): 0 | Color Rating of Filled FPVC ([2]; filled flexible PVC sheet, 1,000 hours QUV exposure (8 h UVA / 4 h condensation cycle)): 4

— US9034943B2, “Salts of dehydroacetic acid as a pyrithione stabilizer in plastics” (LONZA LTD, priority 2009, dated 2015)
